Where a name gives a salt, the structure may show the parent alone.
Key:
Type in all cases: cell-based
[1] = target: T1, EGFR L858R/T790M (H1975-clone #36, homozygous) (Homo sapiens, UniProt P00533, L858R/T790M); experiment: EGFR degradation HTRF assay, H1975-clone #36 cells; settings: H1975 #36, 16h treatment; for Dmax: NCI-H1975, maximum percentage of degradation
T1 construct: designed to specifically target WT EGFR but preserve the L858R/T790M copy; host or cells: H1975-clone #36
Outline: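 H1975 clone #36, made homozygous for L858R/T790M EGFR by knockout of the WT allele, treated 16 h at 37 °C with compound in 0.2% DMSO medium. Eight doses from 10 uM, 5-fold dilutions. EGFR measured by HTRF in lysates. DC50 and Dmax fitted against DMSO controls.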

EGFR (HCC827 cells) = target: T2, EGFR (HCC827 cells) (Homo sapiens, UniProt P00533, DEL746-750); experiment: EGFR degradation HTRF assay, HCC827 cells; settings: HCC827, 16h treatment; for Dmax: maximum percentage of degradation
T2 construct: endogenous in cells; host or cells: HCC827
Outline: (§1)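 BaF3 (WT, Del19/T790M/C797S) and HCC827 cells exposed 16 h at 37 °C, 5% CO2 to compounds in 0.2% DMSO medium, 8 doses from 10 uM top, 5-fold steps. Lysates read by HTRF (665/620 nm); degradation % vs DMSO control, DC50 from four-parameter fit, Dmax as maximal degradation.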

[2] = test system: EGFR Del19/T790M/C797S (BaF3-DTC cells); experiment: EGFR degradation HTRF assay, BaF3-DTC cells; settings: 16h treatment; for DTC Dmax (%): maximum percentage of degradation; for DC50: read-out: DTC DC50
Outline: as §1

[3] = target: T3, EGFR L858R/T790M/C797S (BaF3-LTC cells) (Homo sapiens, UniProt P00533, C797S/L858R/T790M); experiment: EGFR degradation HTRF assay, BaF3-LTC cells; settings: BaF3-LTC, 16h treatment; for Dmax: maximum percentage of degradation, read-out: LTC Dmax (%); for DC50: read-out: LTC DC50
T3 construct: expressed in transfected cells; host or cells: BaF3
Outline: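 Cells treated 16 h at 37 °C, 5% CO2 in medium with 0.2% DMSO; top final concentration 10 uM, 5-fold dilution, 8 doses. Lysates read by HTRF (665/620 nm); degradation % versus DMSO high control, DC50 from four-parameter fit, Dmax as maximal degradation.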

T2 sequence (P00533 with tags, fused parts or gaps DEL746-750): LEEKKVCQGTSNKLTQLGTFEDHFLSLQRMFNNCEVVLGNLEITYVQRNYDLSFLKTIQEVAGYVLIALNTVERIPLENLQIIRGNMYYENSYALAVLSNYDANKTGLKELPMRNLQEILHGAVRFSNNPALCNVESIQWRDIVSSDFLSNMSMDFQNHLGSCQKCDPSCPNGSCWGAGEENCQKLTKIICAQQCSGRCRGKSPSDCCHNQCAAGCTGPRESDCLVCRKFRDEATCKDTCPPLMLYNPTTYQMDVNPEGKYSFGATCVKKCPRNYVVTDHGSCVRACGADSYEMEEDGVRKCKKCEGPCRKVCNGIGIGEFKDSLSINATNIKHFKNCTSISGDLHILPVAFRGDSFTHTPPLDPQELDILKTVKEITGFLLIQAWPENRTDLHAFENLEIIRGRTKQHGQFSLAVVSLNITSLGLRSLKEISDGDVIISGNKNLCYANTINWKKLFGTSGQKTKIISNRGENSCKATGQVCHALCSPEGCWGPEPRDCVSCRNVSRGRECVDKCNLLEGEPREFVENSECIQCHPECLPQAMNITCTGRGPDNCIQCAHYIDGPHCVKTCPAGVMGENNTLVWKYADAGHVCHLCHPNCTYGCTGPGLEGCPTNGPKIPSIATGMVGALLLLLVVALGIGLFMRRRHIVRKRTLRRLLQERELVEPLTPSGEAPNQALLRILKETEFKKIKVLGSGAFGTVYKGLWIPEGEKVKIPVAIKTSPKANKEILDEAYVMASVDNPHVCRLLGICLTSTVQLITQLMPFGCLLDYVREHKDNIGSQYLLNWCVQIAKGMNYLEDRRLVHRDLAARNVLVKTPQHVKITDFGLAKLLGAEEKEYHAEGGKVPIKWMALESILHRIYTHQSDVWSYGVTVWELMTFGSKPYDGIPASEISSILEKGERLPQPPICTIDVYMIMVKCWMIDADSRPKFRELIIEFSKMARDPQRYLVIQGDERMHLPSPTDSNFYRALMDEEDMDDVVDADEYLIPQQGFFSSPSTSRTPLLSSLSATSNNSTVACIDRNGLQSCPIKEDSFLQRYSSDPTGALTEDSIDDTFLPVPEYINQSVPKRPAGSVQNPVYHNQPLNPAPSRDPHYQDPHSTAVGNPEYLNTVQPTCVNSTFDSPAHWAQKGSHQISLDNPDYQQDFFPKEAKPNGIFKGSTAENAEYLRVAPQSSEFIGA
T1 sequence (P00533 25-1210 T790M/L858R): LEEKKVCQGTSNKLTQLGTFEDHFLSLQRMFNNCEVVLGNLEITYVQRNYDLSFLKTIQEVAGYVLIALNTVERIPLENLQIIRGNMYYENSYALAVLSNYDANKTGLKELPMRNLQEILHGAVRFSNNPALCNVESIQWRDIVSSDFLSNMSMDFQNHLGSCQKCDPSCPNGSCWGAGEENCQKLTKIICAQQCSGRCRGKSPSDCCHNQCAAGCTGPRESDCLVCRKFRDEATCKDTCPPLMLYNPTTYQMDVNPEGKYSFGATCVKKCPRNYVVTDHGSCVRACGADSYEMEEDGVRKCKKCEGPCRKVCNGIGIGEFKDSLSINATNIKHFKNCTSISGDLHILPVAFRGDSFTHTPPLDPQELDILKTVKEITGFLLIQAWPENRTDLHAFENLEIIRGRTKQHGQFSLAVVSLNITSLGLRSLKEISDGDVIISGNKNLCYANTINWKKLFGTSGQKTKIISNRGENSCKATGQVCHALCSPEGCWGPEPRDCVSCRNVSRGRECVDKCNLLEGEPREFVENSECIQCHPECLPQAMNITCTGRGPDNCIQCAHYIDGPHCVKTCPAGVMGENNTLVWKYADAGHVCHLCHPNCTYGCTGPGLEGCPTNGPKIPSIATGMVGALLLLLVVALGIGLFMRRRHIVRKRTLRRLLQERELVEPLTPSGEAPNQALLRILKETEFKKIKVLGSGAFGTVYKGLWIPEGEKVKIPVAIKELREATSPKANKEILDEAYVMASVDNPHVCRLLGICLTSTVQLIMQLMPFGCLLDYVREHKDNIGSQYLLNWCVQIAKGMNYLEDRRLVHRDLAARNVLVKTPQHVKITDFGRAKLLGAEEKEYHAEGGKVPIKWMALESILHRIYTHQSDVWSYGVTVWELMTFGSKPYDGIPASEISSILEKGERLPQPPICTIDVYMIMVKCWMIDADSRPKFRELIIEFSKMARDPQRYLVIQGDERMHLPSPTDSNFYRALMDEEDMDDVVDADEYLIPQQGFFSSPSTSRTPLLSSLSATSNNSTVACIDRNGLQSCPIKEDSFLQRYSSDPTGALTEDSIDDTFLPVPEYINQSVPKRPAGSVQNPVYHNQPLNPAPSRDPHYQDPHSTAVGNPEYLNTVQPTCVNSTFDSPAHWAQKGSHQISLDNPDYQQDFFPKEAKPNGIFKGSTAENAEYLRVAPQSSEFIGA
T3 sequence (P00533 25-1210 T790M/C797S/L858R): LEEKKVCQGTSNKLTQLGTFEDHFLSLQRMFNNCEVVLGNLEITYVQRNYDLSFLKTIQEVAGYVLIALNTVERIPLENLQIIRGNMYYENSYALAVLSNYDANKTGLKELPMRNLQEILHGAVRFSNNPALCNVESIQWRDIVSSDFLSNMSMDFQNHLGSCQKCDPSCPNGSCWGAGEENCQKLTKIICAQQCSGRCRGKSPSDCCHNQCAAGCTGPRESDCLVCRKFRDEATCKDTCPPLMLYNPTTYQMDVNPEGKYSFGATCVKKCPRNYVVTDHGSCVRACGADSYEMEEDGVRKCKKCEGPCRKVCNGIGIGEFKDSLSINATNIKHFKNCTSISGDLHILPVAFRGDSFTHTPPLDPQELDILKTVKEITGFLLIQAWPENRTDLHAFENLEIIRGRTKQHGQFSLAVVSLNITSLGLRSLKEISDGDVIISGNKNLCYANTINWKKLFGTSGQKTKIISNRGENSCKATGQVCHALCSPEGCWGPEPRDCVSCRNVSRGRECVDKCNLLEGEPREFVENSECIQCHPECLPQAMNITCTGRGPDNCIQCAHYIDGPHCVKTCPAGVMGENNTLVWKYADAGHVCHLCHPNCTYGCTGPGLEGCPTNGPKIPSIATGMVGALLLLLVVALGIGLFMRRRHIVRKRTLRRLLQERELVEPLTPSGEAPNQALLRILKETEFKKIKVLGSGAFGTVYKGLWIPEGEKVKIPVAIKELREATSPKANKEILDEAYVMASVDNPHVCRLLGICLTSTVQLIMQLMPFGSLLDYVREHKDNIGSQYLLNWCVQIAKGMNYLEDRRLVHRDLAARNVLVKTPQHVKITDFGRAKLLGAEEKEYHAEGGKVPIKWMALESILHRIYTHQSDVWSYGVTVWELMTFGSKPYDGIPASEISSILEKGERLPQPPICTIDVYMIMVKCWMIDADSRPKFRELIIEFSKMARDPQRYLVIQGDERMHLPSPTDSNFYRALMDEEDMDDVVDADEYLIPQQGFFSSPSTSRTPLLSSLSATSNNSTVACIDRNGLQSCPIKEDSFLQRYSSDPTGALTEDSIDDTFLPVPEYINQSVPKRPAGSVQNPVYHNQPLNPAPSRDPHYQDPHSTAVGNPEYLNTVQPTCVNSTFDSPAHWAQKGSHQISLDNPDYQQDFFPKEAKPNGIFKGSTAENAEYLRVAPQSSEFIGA

Row | SMILES | DC50 [1] [nM] | Dmax [1] [%] | DC50 (EGFR (HCC827 cells)) [nM] | Dmax (EGFR (HCC827 cells)) [%] | DTC Dmax (%) [2] [%] | DC50 [2] [nM] | Dmax [3] [%] | DC50 [3] [nM]
1 | CCc1cc(Nc2ncc(Br)c(Nc3ccc4nccnc4c3P(C)(C)=O)n2)c(OC)cc1N1CCC(N2CCN(CCc3ccc(C4CCC(=O)NC4=O)c(F)c3F)CC2)CC1 (stereo not shown) [Example 10, 3-(4-(2-(4-(1-(4-((5-bromo-4-((5-(dimethylphosphoryl)quinoxalin-6-yl)amino)pyrimidin-2-yl)amino)-2-ethyl-5-methoxyphenyl)piperidin-4-yl)piperazin-1-yl)ethyl)-2,3-difluorophenyl)piperidine-2,6-dione] | 15.9 | 82.6 | 12.3 | 83.3 | 85.51 | 15.4 | 88.7 | 83.3
2 | CCc1cc(Nc2ncc(Br)c(Nc3ccc4nccnc4c3P(C)(C)=O)n2)c(OC)cc1N1CCC(N2CCN(CCc3cc(F)c(C4CCC(=O)NC4=O)c(F)c3)CC2)CC1 (stereo not shown) [Example 11, 3-(4-(2-(4-(1-(4-((5-bromo-4-((5-(dimethylphosphoryl)quinoxalin-6-yl)amino)pyrimidin-2-yl)amino)-2-ethyl-5-methoxyphenyl)piperidin-4-yl)piperazin-1-yl)ethyl)-2,6-difluorophenyl)piperidine-2,6-dione] | 5.41 | 97.4 | 2.84 | 86.4 | – | – | 91.9 | –
3 | CCc1cc(Nc2ncc(Br)c(Nc3ccc4nccnc4c3P(C)(C)=O)n2)c(OC)cc1N1CCC(N2CCN(C(=O)C3CN(c4ccc5c(c4)C(=O)N(C4CCC(=O)NC4=O)C5=O)C3)CC2)CC1 (stereo not shown) [Example 64, 5-(3-(4-(1-(4-((5-bromo-4-((5-(dimethylphosphoryl)quinoxalin-6-yl)amino)pyrimidin-2-yl)amino)-2-ethyl-5-methoxyphenyl)piperidin-4-yl)piperazine-1-carbonyl)azetidin-1-yl)-2-(2,6-dioxopiperidin-3-yl)isoindoline-1,3-dione] | 3.12 | 85.8 | 2.06 | 75.7 | 90.07 | 4.85 | 85.4 | 1.72
4 | CCc1cc(Nc2ncc(Br)c(Nc3ccc4nccnc4c3P(C)(C)=O)n2)c(OC)cc1N1CCC(N2CCN(C(=O)C3CCN(c4ccc5c(c4)C(=O)N(C4CCC(=O)NC4=O)C5=O)CC3)CC2)CC1 (stereo not shown) [Example 67, 5-(4-(4-(1-(4-((5-bromo-4-((5-(dimethylphosphoryl)quinoxalin-6-yl)amino)pyrimidin-2-yl)amino)-2-ethyl-5-methoxyphenyl)piperidin-4-yl)piperazine-1-carbonyl)piperidin-1-yl)-2-(2,6-dioxopiperidin-3-yl)isoindoline-1,3-dione] | 9.74 | 74.8 | 6.2 | 76.7 | 94.22 | 4.71 | 87.9 | 13.3
5 | COc1cc(N2CCN(C3CCN(CCc4ccc(C5CCC(=O)NC5=O)cc4)CC3)CC2)ccc1Nc1ncc(Cl)c(Nc2ccccc2N(C)S(C)(=O)=O)n1 (stereo not shown) [Example 120, N-(2-((5-chloro-2-((4-(4-(1-(4-(2,6-dioxopiperidin-3-yl)phenethyl)piperidin-4-yl)piperazin-1-yl)-2-methoxyphenyl)amino)pyrimidin-4-yl)amino)phenyl)-N-methylmethanesulfonamide hydrochloride] | 5.22 | 91.6 | 14.2 | 86.4 | – | – | – | –
6 | COc1cc(N2CCC(N3CCN(CCC4CCN(c5ccc(N6CCC(=O)NC6=O)c(F)c5)CC4)CC3)CC2)ccc1Nc1ncc(Cl)c(Nc2ccccc2N(C)S(C)(=O)=O)n1 [Example 125, N-(2-((5-chloro-2-((4-(4-(4-(2-(1-(4-(2,4-dioxotetrahydropyrimidin-1(2H)-yl)-3-fluorophenyl)piperidin-4-yl)ethyl)piperazin-1-yl)piperidin-1-yl)-2-methoxyphenyl)amino)pyrimidin-4-yl)amino)phenyl)-N-methylmethanesulfonamide] | > 10000 | 27.2 | 103 | 73.5 | – | – | – | –
7 | COc1cc(N2CCC(N3CCN(CCc4ccc(NC5CCC(=O)NC5=O)cc4)CC3)CC2)ccc1Nc1ncc(Cl)c(Nc2ccccc2N(C)S(C)(=O)=O)n1 (stereo not shown) [Example 126, N-(2-((5-chloro-2-((4-(4-(4-(4-((2,6-dioxopiperidin-3-yl)amino)phenethyl)piperazin-1-yl)piperidin-1-yl)-2-methoxyphenyl)amino)pyrimidin-4-yl)amino)phenyl)-N-methylmethanesulfonamide] | 2.61 | 83.9 | 19.1 | 84 | – | – | – | –
8 | COc1cc(N2CCC(N3CCN(CCCOc4ccc(OC5CCC(=O)NC5=O)cc4)CC3)CC2)ccc1Nc1ncc(Cl)c(Nc2ccccc2N(C)S(C)(=O)=O)n1 (stereo not shown) [Example 127, N-(2-((5-chloro-2-((4-(4-(4-(3-(4-((2,6-dioxopiperidin-3 yl)oxy)phenoxy)propyl)piperazin-1-yl)piperidin-1-yl)-2-methoxyphenyl)amino)pyrimidin-4-yl)amino)phenyl)-N-methylmethanesulfonamide] | 11.9 | 64.7 | 35.9 | 71.4 | – | – | – | –
9 | COc1cc(N2CCC(N3CCN(C(=O)C4CCN(CC5CCN(c6ccc7c(c6)C(=O)N(C6CCC(=O)NC6=O)C7=O)CC5)CC4)CC3)CC2)ccc1Nc1ncc(Cl)c(Nc2ccccc2N(C)S(C)(=O)=O)n1 (stereo not shown) [Example 129, N-(2-((5-chloro-2-((4-(4-(4-(1-((1-(2-(2,6-dioxopiperidin-3-yl)-1,3-dioxoisoindolin-5-yl)piperidin-4-yl)methyl)piperidine-4-carbonyl)piperazin-1-yl)piperidin-1-yl)-2-methoxyphenyl)amino)pyrimidin-4-yl)amino)phenyl)-N-methylmethanesulfonamide] | 9.29 | 85.4 | 11.1 | 87.2 | – | – | – | –
10 | COc1cc(N2CCC(N3CCN(CCc4ccc(C5CCC(=O)NC5=O)cc4)CC3)CC2)ccc1Nc1ncc(Cl)c(Nc2ccccc2NS(C)(=O)=O)n1 (stereo not shown) [Example 138, N-(2-((5-chloro-2-((4-(4-(4-(4-(2,6-dioxopiperidin-3-yl)phenethyl)piperazin-1-yl)piperidin-1-yl)-2-methoxyphenyl)amino)pyrimidin-4-yl)amino)phenyl)methanesulfonamide] | 3.58 | 87 | 15.1 | 82.2 | – | – | – | –
11 | COc1cc(N2CCC(N3CCN(CCc4ccc(NC5CCC(=O)NC5=O)cc4)CC3)CC2)ccc1Nc1ncc(Cl)c(Nc2ccccc2NS(C)(=O)=O)n1 (stereo not shown) [Example 140, N-(2-((5-chloro-2-((4-(4-(4-(4-((2,6-dioxopiperidin-3-yl)amino)phenethyl)piperazin-1-yl)piperidin-1-yl)-2-methoxyphenyl)amino)pyrimidin-4-yl)amino)phenyl)methanesulfonamide] | 5.24 | 73.3 | 8.56 | 88.9 | – | – | – | –
12 | COc1cc(N2CCC(N3CCN(CCCOc4ccc(NC5CCC(=O)NC5=O)cc4)CC3)CC2)ccc1Nc1ncc(Cl)c(Nc2ccccc2NS(C)(=O)=O)n1 (stereo not shown) [Example 143, N-(2-((5-chloro-2-((4-(4-(4-(3-(4-((2,6-dioxopiperidin-3-yl)amino)phenoxy)propyl)piperazin-1-yl)piperidin-1-yl)-2-methoxyphenyl)amino)pyrimidin-4-yl)amino)phenyl) methanesulfonamide] | 5.43 | 56.2 | 12.1 | 73 | – | – | – | –

— patent publication US20230265116A1, “DEGRADATION OF (EGFR) BY CONJUGATION OF EGFR INHIBITORS WITH E3 LIGASE LIGAND AND METHODS OF USE” (BEIGENE, LTD., priority 2020, published 2023)
